Data from patent US20210132041A1, “TARGET FOR DRUG TREATMENT OF TUMOR METASTASIS AND USE THEREOF” (PEKING UNIVERSITY, priority 2018, published 2021).

Tests used:
[1] = test system: B16-F10 cells; assay: AnnexinV/7-AAD staining, apoptosis by flow cytometry; format: cell-based, mouse; conditions: FIG. 2; 0.1 μM and 1 μM, 24 hours
Method: AnnexinV/7-AAD staining: Cells were plated on 24-well plates. 0.1 μM and 1 μM of PRAK inhibitor-23 were added for treatment after the cells adhered to the walls. After 24 hours, the cells were harvested for Annexin V/7-AAD staining, and the cell apoptosis was analyzed by flow cytometry.

[2] = test system: B16-F10 tumors; assay: Growth of subcutaneously inoculated B16-F10 tumors in C57BL/6 mice; format: in vivo, mouse; conditions: FIG. 5, 2 mg/kg/d intraperitoneal
Method: 3. Effects on tumor growth in situ Experimental procedure: The C57BL/6 female mice of 6 to 8 week old (commercially available, for example, from Charles River) were selected for the experiment. The B16-F10 cells in the logarithmic growth phase were digested, and washed twice with PBS. After counting, the cells were resuspended in PBS at a density of 1.5×10^6/ml. The tumor cells (3×10^5 cells in 200 μL) were subcutaneously inoculated into the lateral ribs of mice. The drug-treated group was intraperitoneally injected with PRAK inhibitor-23 at 2 mg/kg/d.
The long diameter (L) and short diameter (S) of the tumor were measured with vernier calipers every two days, the tumor size was calculated with the formula L×S×S×0.5, and the tumor growth curve was drawn.

[3] = test system: spontaneous breast tumors; assay: Incidence and growth of spontaneous breast tumors in MMTV-PyMT mice; format: in vivo, mouse; conditions: FIG. 12, 1 mg/kg every other day from 12th week, week 15
Method: The MMTV-PyMT mice were crossed with PRAK mice to obtain MMTV-PRAK WT and MMTV-PRAK knockout mice. From 8 to 10 weeks, the occurrence of breast tumors was observed. Another group of MMTV-PRAK WT mice were given PRAK inhibitor (1 mg/kg) every other day from the 12th week. At week 15, the mice were sacrificed, breast tumor nodules were counted and weighed, and lung tumor nodules were counted at the same time.

[4] = test system: B16-F10 cells; assay: MTS cell proliferation assay; format: cell-based, mouse; conditions: FIG. 1, in vitro
Method: MTS: Same numbers of PRAK WT and KO cells were plated on 96-well plates. Cell Titer 96 Aqueous cell proliferation detection solution was added at different time points after the cells adhered to the walls. After incubation at 37° C. for 1 to 4 hours, the absorbance was measured at 490 nm and the cell proliferation curve was drawn.

O=C1NCc2cc(-c3cnc(Nc4ccc(N5CCOCC5)cc4)c4nccn34)ccc21 [PRAK inhibitor-23, 5-(8-((4-morpholinylphenyl)amino)imidazo [1,2-a]pyrazin-5-yl) isoindol-1-one]
no significant effect: effect on the apoptosis of B16-F10 cells [1] | effect on the growth of subcutaneously inoculated B16-F10 tumors at the injection site [2] | effect on the incidence and growth of spontaneous breast tumors [3] | effect on the proliferation of B16-F10 cells [4]
